# Assay results: patent US20260077069A1, “COMBINATIONS OF CONTRAST AGENTS” (BAYER AKTIENGESELLSCHAFT, priority 2022, published 2026)
# Like-named read-outs stand apart in the source and are kept apart here. Marks after values point to notes of the source that are not given here.
# How the values were obtained:
# [1] = 37° C., from Robic et al. Invest Radiol. 2019, cited from earlier work
# [2] = tested on: freshly isolated rat hepatocytes; assay: Uptake into freshly isolated rat hepatocytes; type: cell-based; settings: for Inhibition Rifampicine: uptake with OATP1B1/1B3 inhibitor Rifampicine 1:1, each 100 uM
# Procedure: Freshly isolated rat hepatocytes were received as described before (Papeleu P. et al. (2006) Isolation of Rat Hepatocytes. In: Phillips I. R., Shephard E. A. (eds) Cytochrome P450 Protocols. Methods in Molecular Biology, vol 320. Humana Press, Totowa, NJ. https://doi.org/10.1385/1-59259-998-2:229). The rat hepatocytes were incubated (2.5·10^5 cells/well) for 2.5 to 4 h in collagen coated 24-well plates (Fa. Beckton Dickinson Biocoat, cell environments, Collagen I Cellware) in Williams E-medium (Fa. Sigma W1878) in an incubator (37° C., 5% CO2 and […]). After incubation the adherent hepatocytes were washed once with 37° C. Hepes carbonate transport buffer (500 μL/well). The test items and RC3 were prepared from stock solutions (180 to 500 mM concentration) in Hepes carbonate transport buffer at pH 7.4 to reach a final concentration of 100 μmol Gd/L. The specific uptake of the test item or RC3 into rat hepatocytes via OATP1B1 and OATP1B3 was challenged using a known OATP1B1/1B3 inhibitor (Rifampicine, Fa. Sigma R3501, test item and inhibitor 1:1 each 100 µM final concentration). The prepared rat hepatocyte plates were incubated with test solutions (500 μL/well) at 37° C. for 10 min using a thermoshaker (Fa. Grant Bio, PHMP). Triplicates were performed for each test item. After incubating the cells were washed once with cold PBS buffer (Fa. Gibco, Dulbeccos PBS (+)). After washing the intact hepatocytes were lysed by addition of 500 μL cold 0.01% Triton-X 100 in Millipore water for 1 h. The strongly hypo-osmolar water led to cell membrane rupture and the release of the intracellular Gd-compound. After 1 h 500 μL of 10 nM Terbium ICP-MS standard was added in 2% nitric acid and 0.01% Triton 100 before the Gadolinium concentrations in the lysate were measured using ICP-MS (Agilent 8900, singleQuad, integr. Time 0.3 s, no gas, 5 replicates, Gd m/z 157, Tb m/z 159). As a reference standard RC3 is used in the same well plate. The hepatocyte uptake of the test compound is calculated relative to RC3 (resulting in the unit % of RC3).
# [3] = 1.5 T, 37° C., Invest Radiol. 2005, cited from earlier work; for r1 plasma: bovine plasma instead of human plasma
# [4] = Relaxivity measurements at 1.41 T in water and human plasma; type: physicochemical; settings: 37° C., normalized to Gd
# Procedure: Relaxivity measurements at 1.41 T were performed using a MiniSpec mq60 spectrometer (Bruker Analytik, Karlsruhe, Germany) operating at a resonance frequency of 60 MHz and a temperature of 37° C. The T1 relaxation times were determined using the standard inversion recovery (IR) method with a fixed relaxation delay of at least 5×T1. The variable inversion time (TI) was calculated automatically by the standard software of the MiniSpec mq60 (8 steps). The T2 measurements were performed by using a Carr-Purcell-Meiboom-Gill (CPMG) pulse sequence, applying a relaxation delay of at least 5×T1.
# Each relaxivity measurement was performed using three different Gd concentrations (3 concentrations between 0.05 and 2 mM). The T1 and T2 relaxation times of the example compounds were measured in water and human plasma. Human plasma preparation: For each experiment fresh blood was taken from a volunteer using 10 mL citrate-tubes (Sarstedt S-Monovette 02.1067.001, 10 mL, Citrate). The 10 mL citrate-tubes were carefully inverted 10 times to mix blood and anticoagulant and centrifuged for 15 min at 1811 g at RT (Eppendorf, Centrifuge 5810R).
# The relaxivities ri (where i=1, 2) were calculated based on the measured relaxation rates Ri in water and plasma:
# where Ri(0) represent the relaxation rate of the respective solvent and CGd the concentration of the compound normalized to the Gadolinium. The Gadolinium concentrations of the investigated solutions were verified by Inductively Coupled Plasma Mass Spectrometry (ICP-MS Agilent 7500a, Waldbronn, Germany).
Structure (SMILES),Inhibition Rifampicine [2],r1 plasma [3],r1 water [3],r1 human plasma [4],r1 water [4],other results
O=C(CCC(C(=O)[O-])N1CCN(C(CCC(=O)NCC(O)CO)C(=O)[O-])Cc2cccc(n2)CN(C(CCC(=O)NCC(O)CO)C(=O)[O-])CC1)NCC(O)CO.[Gd+3] (stereo not shown) [Compound 11],–,–,–,–,–,r1 human plasma ([1]; human plasma): 12.8** L·mmol^−1·s^−1; r1 water ([1]; water): 12.2** L·mmol^−1·s^−1
"O=C([O-])CN(CCN(CC(=O)[O-])CC(=O)[O-])CCN(CC(=O)[O-])C(COCc1ccccc1)C(=O)[O-].[Gd+3].[H+].[H+] (stereo not shown) [RC 4, gadobenic acid, reference compound]",79 % inhibition,6.3^# L·mmol^−1·s^−1,4.0^# L·mmol^−1·s^−1,–,–,"Uptake rat hepatocytes ([2]; 100 μmol Gd/L, 10 min, 37° C., Gd in lysate by ICP-MS, relative to RC3): 9 % of RC3"
"O=C([O-])CN1CCN(CC(=O)[O-])CCN([C@H](CO)[C@H](O)CO)CCN(CC(=O)[O-])CC1.[Gd+3] (racemic) [RC 1, gadobutrol]",–,3.6^# L·mmol^−1·s^−1,2.9^# L·mmol^−1·s^−1,–,–,–
"CCOc1ccc(CC(CN(CCN(CC(=O)[O-])CC(=O)[O-])CC(=O)[O-])N(CC(=O)[O-])CC(=O)[O-])cc1.[Gd+3].[Na+].[Na+] (stereo not shown) [RC 3, gadoxetate disodium]",97 % inhibition,6.9^# L·mmol^−1·s^−1,4.7^# L·mmol^−1·s^−1,–,–,–
"CNC[C@H](O)[C@@H](O)[C@H](O)[C@H](O)CO.O=C([O-])CN1CCN(CC(=O)[O-])CCN(CC(=O)O)CCN(CC(=O)[O-])CC1.[Gd+3] [RC 2, gadoterate meglumine]",–,5.2^# L·mmol^−1·s^−1,3.3^# L·mmol^−1·s^−1,–,–,–
CCCCOc1ccc(CC2CN(CC(=O)[O-])CCN(CC(=O)[O-])CCN(CC(=O)O)CCN2CC(=O)[O-])cc1.[Gd+3] (stereo not shown) [Compound 24],86 % inhibition,–,–,9.8 L/mmol/s,5.3 L/mmol/s,–
CCOCCOCCOc1ccc(CCC[C@H](C(=O)O)N2CCN([C@H](CO)C(=O)[O-])CCN([C@H](CO)C(=O)[O-])CCN([C@H](CO)C(=O)[O-])CC2)cc1.[Gd+3] [Compound 16],92 % inhibition,–,–,9.0 L/mmol/s,5.3 L/mmol/s,–
CCCCOc1ccc(CC(C(=O)[O-])N2CCN(CC(=O)[O-])CCN(CC(=O)[O-])CCN(CC(=O)O)CC2)cc1.[Gd+3] (stereo not shown) [Compound 14],98 % inhibition,–,–,13.3 L/mmol/s,4.3 L/mmol/s,–
